{
  "source": "patent US11040034B2",
  "about": "(priority 2016, dated 2021)",
  "key": {"[1]": {"conditions": "cynomolgus monkey liver microsomes"}, "[2]": {"conditions": "rat liver microsomes"}},
  "note": "Like-named read-outs stand apart in the source and are kept apart here.",
  "data": [
    {"molecule": "CCS(=O)(=O)NCc1cc(-c2nc3cc(F)c(F)cc3n2C2CC2)cnn1", "note": "[Example 52, N-((5-(1-Cyclopropyl-5,6-difluoro-1H-benzo[d]imidazol-2-yl)pyridazin-3-yl)methyl)ethanesulfonamide]", "values": [
      {"measurement": "metabolic stability in comparison to comparison example", "setting": "[1]", "result": "greater metabolic stability"},
      {"measurement": "metabolic stability in comparison to comparison example", "setting": "[2]", "result": "greater metabolic stability"}
    ]}
  ]
}
